Data published in US7521536B2, “Glutamate transporter associated protein” (The Johns Hopkins University School of Medicine, priority 1999, dated 2009).

How the values were obtained:
EAAT4 [1] = assay: Na+-dependent glutamate uptake in EAAT4 expressing HEK cells transfected with PCTAIRE; assay type: cell-based
Protocol: Transfection of EAAT4 expressing HEK cells with PCTAIRE results in diminished Na^+-dependent glutamate uptake. HEK cells and EAAT4 expressing HEK cells were transfected with 1.0 μg of pCMV PCTAIRE plasmid, and allowed to express for 48 hours. Cell monolayers were then washed with tissue buffer (50 mM Tris, 320 mM sucrose, pH 7.4). The cells were then incubated for 4 min at 37° C. with 1 mL of either sodium-(120 mM NaCl, 25 mM NaHCO3, 5 mM KCl, 2 mM CaCl2, 1 mM KH2PO4, 1 mM MgSO4, 10% glucose and 10 μM glutamate or choline-(120 mM choline-Cl, 25 mM Tris-HCl, 5 mM KCl, 2 mM CaCl2, 1 mM KH2PO4, 1 mM MgSO4, 10% glucose and 10 μM glutamate) containing buffer. Glutamate uptake assays were then performed using L-[^3H]-Glutamate in the presence and absence of Na^+. After rinsing, cells were lysed in 0.1 N NaOH and lysate radioactivity measured using a scintillation counter. Protein content was measured and glutamate uptake calculated as the difference between Na^+ containing and sodium free values per mg of protein.
Inhibition of Na^+-dependent glutamate uptake by PCTAIRE is reversible using the cdk2 inhibitor olomucine. HEK cells expressing EAAT4 were transfected with 1.0 μg of pCMV PCTAIRE plasmid as described above, and allowed to express for 48 hours. Prior to glutamate uptake assay, cells were treated with 100 μM olomucine for 30 minutes at 37° C. as indicated. […]

GTRAP3-18 [2] = assay: intraventricular GTRAP3-18 antisense oligomers, cortical glutamate uptake; assay type: in vivo
Protocol: To examine modulation of EAAC1 by GTRAP3-18 in vivo, GTRAP3-18 antisense oligomers were administered intraventricularly. Sequences for the novel phosphodiester oligonucleotides used were: sense GTRAP3-18: 5′-GTGAACCTTGCCCGCTC-3′, antisense GTRAP3-18: 5′-GAGCGGGGCAAGGTTCAC-3′ Oligonucleotides (5 μg/μL), separately or in combination were administered intraventricularly over 3-11 days, by mini-osmotic pumps (Alza Corp., Palo Alto, Calif.) as described previously (Rothstein et al., (1994)).

EAAT4 [3] = assay: cerebellar glutamate uptake after intra-cisternal injection of HSV amplicon vectors; assay type: in vivo, rat; settings: inhibitor of GLT-1 mediated glutamate transport
GTRAP3-18 [4] = assay: intraventricular infusion of retinoic acid, cortical GTRAP3-18 and glutamate uptake; assay type: in vivo
Protocol: To test this hypothesis in vivo, retinoic acid was infused intraventricularly (1-20 μM; 0-20 pmol/μL). […] This effect is specifically due to decreased EAAC1 -mediated transport because it was not altered by the glutamate transport inhibitor dihydrokainic acid, at a concentration that predominantly effects GLT-1 (Robinson et al. (1998)). […] Retinoic acid had no effect on glutamate transport by cells expressing GLT-1 or EAAT4.

GTRAP3-18 [5] = assay: GTRAP3-18 antisense oligomers transfected into HEK293 cells; assay type: cell-based
From the text: Western blot analyses and glutamate uptake assays reveal endogenous expression of EAAC1 and GTRAP3-18 protein in HEK cells, but no expression of other transporter subtypes, e.g., GLAST, GLT-1, or EAAT4. Antisense oligomers, targeted to the 5′-GTRAP3-18 transcript, were transfected into HEK293 cells.

EAAC1 = target: T1, EAAC1 (Rattus norvegicus, UniProt P51907); assay: sodium-dependent [3H]-glutamate transport in HEK293 cells co-expressing EAAC1 and GTRAP3-18; assay type: cell-based
T1 construct: For transient expression in HEK 293T cells, full-length EAAC1 cDNA was subcloned into the EcoR I/BamH I site; expressed in transfected cells; host or cells: HEK293 / HEK 293T, transient, pRK5
T1 sequence (P51907 1-523): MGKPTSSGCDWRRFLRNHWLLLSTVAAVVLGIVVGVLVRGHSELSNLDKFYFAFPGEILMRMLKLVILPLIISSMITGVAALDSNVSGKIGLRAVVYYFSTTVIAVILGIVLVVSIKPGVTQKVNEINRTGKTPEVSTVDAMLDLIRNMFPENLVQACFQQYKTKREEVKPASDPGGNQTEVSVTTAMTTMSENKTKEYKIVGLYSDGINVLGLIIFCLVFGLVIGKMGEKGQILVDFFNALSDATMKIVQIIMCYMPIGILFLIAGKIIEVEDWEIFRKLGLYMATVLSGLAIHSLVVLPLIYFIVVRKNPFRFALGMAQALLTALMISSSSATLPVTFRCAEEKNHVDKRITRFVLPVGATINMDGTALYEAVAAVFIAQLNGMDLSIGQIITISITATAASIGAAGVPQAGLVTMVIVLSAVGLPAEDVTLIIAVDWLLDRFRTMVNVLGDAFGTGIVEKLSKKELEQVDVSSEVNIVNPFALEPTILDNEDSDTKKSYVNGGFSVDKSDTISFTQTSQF
From the text: (§1) To test if GTRAP3-18 modulates EAAC1 function, sodium-dependent [^3H]-glutamate transport was studied in HEK293 cells co-expressing both proteins, 72 hrs after transfection (Rothstein et al. Neuron 16, 675-686 (1996); Lin et al., Neuron 20, 589-602 (1998)). Total glutamate transport progressively decreases with increasing GTRAP3-18 protein expression (FIG. 4). GTRAP3-18 negatively modulates EAAC1-mediated glutamate transport. GTRAP3-18 inhibited EAAC1-mediated transport, but had no effect on EAAT4 (n=6). The co-expression of GTRAP-3-18 has no effect on total EAAC1 protein expression. Analysis of HEK293 cells by confocal microscopy and surface biotinylation reveal no alteration in the membranous localization of EAAC1. Superoxide dismutase (SOD1) was used as a control. […] This effect is specific for EAAC1; co-expression of GTRAP3-18 with EAAT4 has no effect on transport activity. The inhibition of transport is not due to a decrease of EAAC1 protein level by the co-expression of GTRAP3-18, as quantitated by Western blotting. Similarly, the loss of EAAC1 activity is not due to altered protein trafficking; even at high levels of GTRAP3-18 expression, when little EAAC1-mediated transport is observed, EAAC1 surface expression is unaltered as determined by surface biotinylation and confocal microscopy.
To evaluate the biochemical nature of altered transport, kinetic analyses were performed with HEK293 cells co-expressing EAAC1 and GTRAP3-18. […] Similar results are observed with other cell lines (COS7 and C6 glioma).

EAAT4 [6] = target: T2, EAAT4 (Rattus norvegicus, UniProt O35921); assay: sodium-dependent [3H]-glutamate transport in HEK293 cells co-expressing EAAT4 and GTRAP3-18; assay type: cell-based
T2 sequence (O35921 1-561): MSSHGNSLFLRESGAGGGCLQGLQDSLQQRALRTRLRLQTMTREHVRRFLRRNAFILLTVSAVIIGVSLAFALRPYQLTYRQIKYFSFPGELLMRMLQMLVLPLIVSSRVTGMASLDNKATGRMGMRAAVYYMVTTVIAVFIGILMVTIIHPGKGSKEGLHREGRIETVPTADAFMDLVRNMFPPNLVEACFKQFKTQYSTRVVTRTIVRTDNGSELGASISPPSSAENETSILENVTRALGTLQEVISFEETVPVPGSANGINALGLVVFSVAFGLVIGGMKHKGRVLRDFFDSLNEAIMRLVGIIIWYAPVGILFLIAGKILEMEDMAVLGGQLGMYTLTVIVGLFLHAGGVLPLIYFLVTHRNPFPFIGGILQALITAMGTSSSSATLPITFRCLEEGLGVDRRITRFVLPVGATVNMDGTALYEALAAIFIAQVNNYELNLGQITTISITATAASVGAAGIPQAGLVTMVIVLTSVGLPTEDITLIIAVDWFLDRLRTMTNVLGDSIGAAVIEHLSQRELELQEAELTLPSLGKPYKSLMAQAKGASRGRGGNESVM
From the text: as §1

GST-EAAC1 = target: T3, GST-EAAC1 (Rattus norvegicus, UniProt P51907); assay: in vitro cell-free binding to immobilized GST-EAAC1; settings: [35S]-labeled protein; not to GST alone
T3 construct: made in house; BL21 is described for GST-EAAT4
T3 sequence (P51907 1-523): T1 sequence (P51907 1-523)
Protocol: The interaction of GTRAP3-18 with EAAC1 was examined using in vitro and in vivo methods. For in vitro cell-free binding, EAAC1 was expressed as a fusion protein with glutathione S-transferase (GST), and GTRAP3-18 was produced and labeled with [^35S]-methionine by in vitro transcription and translation. Purified GST or GST-EAAC1 fusion proteins immobilized on glutathione-Sepharose were incubated with [^35S]-labeled GTRAP3-18 protein.

[7] = eleven days of intraventricular treatment
[8] = antisense 50-100 ng/day intraventricular for 7-10 days, retinoic acid 2.5 μM

Molecule: PCTAIRE: serine/threonine kinase related to the cyclin-dependent kinase 2 (cdk2) family, interacts with amino terminus of EAAT4
- Na+-dependent glutamate uptake (EAAT4 [1]; 1.0 μg pCMV PCTAIRE plasmid, 48 hours): diminished

Molecule: Cn1cnc2c(NCc3ccccc3)nc(NCCO)nc21 [olomucine, reference compound]
- inhibition of Na+-dependent glutamate uptake by PCTAIRE (EAAT4 [1]; 100 μM for 30 minutes at 37° C. before uptake assay): reversible

Molecule: 5′-GTGAACCTTGCCCGCTC-3′ (chemistry not fully specified) [sense GTRAP3-18, sense control phosphodiester oligonucleotide, reference compound]
- cortical glutamate uptake (GTRAP3-18 [2]; [7]): not altered

Molecule: CC(C)[C@H]1CN[C@H](C(=O)O)[C@H]1CC(=O)O [Dihydrokainic acid, reference compound]
- effect on cerebellar glutamate uptake (EAAT4 [3]): no effect
- effect of inhibitor on the antisense-induced increase in cortical glutamate uptake (GTRAP3-18 [2]; in vivo): not altered
- effect of inhibitor on the retinoic acid-induced decrease of glutamate uptake (GTRAP3-18 [4]; concentration that predominantly effects GLT-1): not altered

Molecule: 5′-GAGCGGGGCAAGGTTCAC-3′ (DNA, all phosphodiester, methylation of C not given here) [antisense GTRAP3-18, phosphodiester oligonucleotide antisense to the 5′-GTRAP3-18 transcript]
- EAAC1 protein level (GTRAP3-18 [5]): not affected
- endogenous GTRAP3-18 protein level (GTRAP3-18 [5]): reduced
- glutamate transport activity (GTRAP3-18 [5]): elevated
- Vmax of DHK-insensitive cortical glutamate uptake (GTRAP3-18 [2]; antisense-treated animals, control 1.08): 1.08 nmol/min/mg protein
- Km (GTRAP3-18 [2]; antisense-treated animals, control Km=19.7 μM, read-out: Km of DHK-insensitive cortical glutamate uptake): 10 µM
- GTRAP3-18 protein level (GTRAP3-18 [2]; [7]): reduction
- cortical glutamate uptake (GTRAP3-18 [2]; [7]): significant increase
- inhibition of glutamate transport seen with retinoic acid treatment (GTRAP3-18 [4]; [8]): blocks
- retinoic acid induction of GTRAP3-18 (GTRAP3-18 [4]; [8]): blocks

B1: GTRAP3-18: glutamate transporter EAAC1 associated protein, 188 amino acids (SEQ ID NO:6), rat JWA protein homologue (protein)
chain: MDVNLAPLRAWDDFFPGSDRFARPDFRDISKWNNRVVSNLLYYQTNYLVVAAMMISVVGFLSPFNMILGGIIVVLVFTGFVWAAHNKDILRRMKKQYPTAFVMVVMLASYFLISMFGGVMVFVFGITFPLLLMFIHASLRLRNLKNKLENKMEGIGLKKTPMGIILDALEQQEDSINKFADYISKARE
modifications: Rattus
- Vmax of glutamate transport (EAAC1; EAAC1 and GTRAP3-18 co-expressing cells, EAAC1 only 1.02): 0.99 nmol/min/mg protein
- Km (EAAC1; EAAC1 and GTRAP3-18 co-expressing cells, EAAC1 only Km=9 μM, n=4): 40 µM
- effect on EAAC1-mediated glutamate transport (EAAC1; HEK293 cells, 72 hrs after transfection, n=6): inhibited
- decrease in affinity (Eadie-Scatchard plot of glutamate transport) (EAAC1; transfected HEK293 cells, n=4): 4-10 fold
- effect on EAAT4 glutamate transport (EAAT4 [6]): no effect
- binding to immobilized GST-EAAC1 (GST-EAAC1): specifically binds
